These results are taken from patent publication US6869923B1, “Perfume compositions” (Procter & Gamble Company, priority 1998, dated 2005).

The test concerns panelist. Put plainly: Odor detection threshold (ODT) by gas chromatograph with sniff port. Also noted: species or system human. As to conditions: GC sniff port, average across panelists. The method, then:
Odor detection thresholds are determined using a gas chromatograph. The gas chromatograph is calibrated to determine the exact volume of material injected by the syringe, the precise split ratio, and the hydrocarbon response using a hydrocarbon standard of known concentration and chain-length distribution. The air flow rate is accurately measured and, assuming the duration of a human inhalation to last […], the sampled volume is calculated. […] A panelist sniffs the GC effluent and identifies the retention time when odor is noticed. The average across all panelists determines the threshold of noticeability. […] Typical gas chromatograph parameters for determining odor detection thresholds are listed below. • GC: 5890 Series II with FID detector • 7673 Autosampler • Column: J&W Scientific DB-1 • Length 30 meters ID 0.25 mm film thickness 1 micron • Method: • Split Injection: 17/1 split ratio • Autosampler: 1.13 microliters per injection • Column Flow: 1.10 mL/minute • Air Flow: 345 mL/minute • Inlet Temp. 245° C. • Detector Temp. 285° C. • Temperature Information • Initial Temperature: 50° C. • Rate: 5 C/minute • Final Temperature: 280° C. • Final Time: 6 minutes • Leading assumptions: • (i) 12 seconds per sniff • (ii) GC air adds to sample dilution A-High Impact Accord (“HIA”) Perfume Ingredients of Class 1

A value given as a limit tells only on which side of the number the result lay.

Take 3-Methyl-4(5)-Cyclopentadecenone: the ODT is <50 PPB.

Take `CC1COC(C)(c2ccc3c(c2)C(C)(C)CCC3(C)C)O1` (stereo not shown) [2,4,Dimethyl-2-(1,1,4,4 tetramethyl) tetralin-6-yl)-13-dioxolane]: the ODT is recorded as <50 PPB.

In the case of `CC1=CCC(C(C)CC2CCCC2=O)CC1` (stereo not shown) [2-(2-(4 methyl-3-Cyclohexen-1-yl)propyl)-cyctopentanone.], the ODT is listed as <50 PPB.

Consider `CC(CO)C1CCCCCCCCCCC1` (stereo not shown) [2-(Cyclododecyl)-propan-1-ol], for which the ODT is given as <50 PPB.

Turning to `CC1=CCC(C=CC(C)C(C)O)C1(C)C` (stereo not shown) [3-Methyl-5-(2,2,3,trimethyl-3-cyclopenten-1-yl)-4-penten-2-ol], the ODT is recorded as <50 PPB.

Regarding `O=C1CCCC=CCCCCCCCCCC1` [5-Cyclohexadecenone-1], the ODT is listed as <50 PPB.

Take `CC1C(C)(C)C2=C(C(=O)CCC2)C1(C)C` (stereo not shown) [6,7Dihydro-1,1,2,3,3-Penta-Methyl-4(5H)-Indanone]: the ODT was <50 PPB.

On to `CC(=O)C1(C)CC2=C(CCCC2(C)C)CC1C` (stereo not shown) [7,Acetyl,1,2,3,4,5,6,7,8-Octahydro-1,1,6,7-Tetra Methyl Naphthalene], for which the ODT is recorded as <50 PPB.

For the compound `COc1ccc(C=O)cc1` [Anisic Aldehyde], the ODT was <50 PPB.

In the case of `CC/C=C\CCOC(=O)c1ccccc1O` [Cis-3-Hexenyl Salicylate], the ODT is <50 PPB.

With `CC1=CC(C)C(C=O)CC1` (stereo not shown) [Cyclal C], the ODT is given as <50 PPB.

Consider `CCCC(O)CCC1C(C)CCCC1(C)C` (stereo not drawn) [Cyclohexane Propanol 2,2,6 Trimethyl-Alpha-Propyl.], for which the ODT is <50 PPB.

Regarding `CCOC(=O)C(C)CC` (stereo not shown) [Ethyl-2-methyl Butyrate], the ODT was <50 PPB.

`CC(=O)OC1CC2CC1C1CC=CC21` (stereo not shown) [Flor Acetate]: the ODT is reported as <50 PPB.

As for `CCC(=O)OC1CC2CC1C1CC=CC21` (stereo not shown) [Frutene], the ODT is listed as <50 PPB.

`CC(=O)/C=C/C1=C(C)CCCC1(C)C` [Ionone Beta]: the ODT is <50 PPB.

In the case of `C=CC(C)(O)CCC=C(C)C` (stereo not shown) [Linalool], the ODT is <50 PPB.

Take `CCCCCCC#CC(=O)OC` [Methyl Octine Carbonate]: the ODT is <50 PPB.

Regarding `CCC12CCC3C(C)(C)CCCC3(C)C1CCO2` (stereo not shown) [Naphtho(2.1-B)-furan,3A-Ethyl Dodecahydro-6,6,9A-Trimethyl], the ODT is reported as <50 PPB.

As for `CC(C)=CC1CC(C)CCO1` (stereo not shown) [Rose Oxide], the ODT is given as <50 PPB.

As for `CCCCCCCCCCC=CC#N` [Tridecene-2-nitrile], the ODT is reported as <50 PPB.

Oxacyclohexadecen-2-one: the ODT was <50 PPB.
